Laboratory results: patent US5030760A, “Tetrahydrophthalimides, and their production and use” (Sumitomo Chemical Company, Ltd., priority 1981, dated 1991)

Legend:
corn [1] = test: Test Example 1, foliar treatment, phytotoxicity to corn; assay type: in vivo; conditions: 3 weeks; note: ranges in brackets are in %
Protocol: (§1) The application of the tetrahydrophthalimides (I) as herbicides will be illustratively shown in the following Examples wherein the phytotoxicity to cultivated plants and the herbicidal activity on weeds were evaluated as follows: the aerial parts of the test plants were cut off and weighed (fresh weight); the percentage of the fresh weight of the treated plant to that of the untreated plant was calculated with the latter fresh weight taken as 100; and the crop damage and the herbicidal activity were evaluated by the standard given in the table below. The rating values of phytotoxicity, 0 and 1, and those of herbicidal effect, 5 and 4, are generally regarded as satisfactory to protect cultivated plants and control weeds, respectively. The rating values in the paddy field test alone were calculated from the dry weight of the test plants.
(§2) Plastic beakers (diameter, 10 cm; height, 10 cm) were filled with upland field soil, and the seeds of corn, barnyardgrass, wild oat, wild mustard and velvetleaf were separately sown in the beakers and grown for 2 weeks in the greenhouse. A designed amount of the test compound was sprayed to the foliage of the test plants by means of a small hand sprayer. After the spraying, the test plants were further grown for 3 weeks in the greenhouse, and herbicidal activity was examined. In this foliar treatment, the test compounds were formulated into an emulsifiable concentrate according to Preparation Example 2 and applied at a spray volume of 5 liters per are by dispersing it in water with the addition of a spreading agent.

barnyardgrass = test: Test Example 1, foliar treatment, herbicidal activity; assay type: in vivo, Echinochloa crus-galli; conditions: 3 weeks; note: ranges in brackets are in %
Protocol: as §1, §2

wild oat = test: as above; assay type: in vivo, Avena fatua; conditions: 3 weeks; note: ranges in brackets are in %
Protocol: as §1, §2

wild mustard = test: as above; assay type: in vivo, Brassica kaber; conditions: 3 weeks
Protocol: as §1, §2

velvetleaf [2] = test: as above; assay type: in vivo, Abutilon theophrasti; conditions: 3 weeks
Protocol: as §1, §2

corn [3] = test: Test Example 3, soil surface spraying, phytotoxicity to corn; assay type: in vivo; conditions: 20 days; note: ranges in brackets are in %
Protocol: as §1
(§3) Plastic trays (35 cm×25 cm×15 cm) were filled with upland field soil, and the seeds of tall morningglory, velvetleaf and sicklepod and the seeds of corn were sown therein. A designed amount of the test compounds formulated into a wettable powder according to Preparation Example 1 was dispersed in water and applied by spraying at a spray volume of 5 liters per are to the whole surface of the soil. After the spraying, the test plants were placed in a greenhouse and grown for 20 days, and herbicidal activity and phytotoxicity were examined.

tall morningglory = test: Test Example 3, soil surface spraying, herbicidal activity; assay type: in vivo, Ipomoea purpurea; conditions: 20 days; note: ranges in brackets are in %
Protocol: as §1, §3

sicklepod = test: as above; assay type: in vivo, Cassia obtusifolia; conditions: 20 days; note: ranges in brackets are in %
Protocol: as §1, §3

velvetleaf [4] = test: as above; assay type: in vivo, Abutilon theophrasti; conditions: 20 days
Protocol: as §1, §3

corn [5] = test: Test Example 4, pre-emergence treatment, phytotoxicity to corn; assay type: in vivo; conditions: 20 days; note: ranges in brackets are in %
Protocol: as §1
(§4) Plastic beakers (diameter, 10 cm; height, 10 cm) were filled with upland field soil, and the seeds of corn, cotton and soybean and the seeds of morningglory, velvetleaf, Johnsongrass and green foxtail were separately sown in the beakers. A designed amount of the test compound was sprayed over the top by means of a small hand sprayer. After the spraying, the test plants were grown for 20 days in the greenhouse, and herbicidal activity and phytotoxicity were examined. In this pre-emergence treatment, the test compounds were formulated into an emulsifiable concentrate according to Preparation Example 2 and applied at a spray volume of 5 liters per are by dispersing it in water with the addition of a spreading agent.

cotton = test: Test Example 4, pre-emergence treatment, phytotoxicity to cotton; assay type: in vivo; conditions: 20 days; note: ranges in brackets are in %
Protocol: as §1, §4

soybean = test: Test Example 4, pre-emergence treatment, phytotoxicity to soybean; assay type: in vivo; conditions: 20 days; note: ranges in brackets are in %
Protocol: as §1, §4

morningglory = test: Test Example 4, pre-emergence treatment, herbicidal activity; assay type: in vivo; conditions: 20 days; note: ranges in brackets are in %
Protocol: as §1, §4

velvetleaf [6] = test: as above; assay type: in vivo, Abutilon theophrasti; conditions: 20 days
Protocol: as §1, §4

Johnsongrass = test: as above; assay type: in vivo, Sorghum halepense; conditions: 20 days; note: ranges in brackets are in %
Protocol: as §1, §4

green foxtail = test: as above; assay type: in vivo, Setaria viridis; conditions: 20 days; note: ranges in brackets are in %
Protocol: as §1, §4
Throughout, for Herbicidal activity, Velvetleaf: ranges in brackets are in %.

Row | Compound | Phytotoxicity, Corn (corn [1]; 1.25 g/are) | Phytotoxicity, Corn (corn [1]; 5 g/are) | Herbicidal activity, Barnyardgrass (barnyardgrass; 1.25 g/are) | Herbicidal activity, Barnyardgrass (barnyardgrass; 5 g/are) | Herbicidal activity, Wild cat (wild oat; 1.25 g/are) | Herbicidal activity, Wild cat (wild oat; 5 g/are) | Herbicidal activity, Wild mustard (wild mustard; 1.25 g/are) | Herbicidal activity, Wild mustard (wild mustard; 5 g/are) | Herbicidal activity, Velvetleaf (velvetleaf [2]; 1.25 g/are) | Herbicidal activity, Velvetleaf (velvetleaf [2]; 5 g/are) | Phytotoxicity, Corn (corn [5]; 2.5 g/are) | Phytotoxicity, Corn (corn [5]; 10 g/are) | Phytotoxicity, Cotton (cotton; 2.5 g/are) | Phytotoxicity, Cotton (cotton; 10 g/are) | Herbicidal activity, Morningglory (morningglory; 10 g/are) | Herbicidal activity, Velvetleaf (velvetleaf [6]; 2.5 g/are) | Herbicidal activity, Velvetleaf (velvetleaf [6]; 10 g/are) | Herbicidal activity, Johnsongrass (Johnsongrass; 2.5 g/are) | Herbicidal activity, Johnsongrass (Johnsongrass; 10 g/are) | Herbicidal activity, Green foxtail (green foxtail; 10 g/are) | other results
1 | CCOc1cc(N2C(=O)C3=C(CCCC3)C2=O)c(F)cc1Cl [compound 2] | 0 (100) | 1 (90-99) | 3 (11-20) | 5 (0) | 3 (11-20) | 5 (0) | 5 (0) | 5 (0) | 5 (0) | 5 (0) | 0 (100) | 1 (90-99) | 0 (100) | 0 (100) | 4 (1-10) | 5 (0) | 5 (0) | 4 (1-10) | 5 (0) | 5 (0) | Phytotoxicity, Corn (corn [3]; 5 g/are): 0 (100); Phytotoxicity, Corn (corn [3]; 10 g/are): 0 (100); Herbicidal activity, Tall morningglory (tall morningglory; 5 g/are): 4 (1-10); Herbicidal activity, Tall morningglory (tall morningglory; 10 g/are): 4 (1-10); Herbicidal activity, Sicklepod (sicklepod; 5 g/are): 4 (1-10); Herbicidal activity, Sicklepod (sicklepod; 10 g/are): 5 (0); Herbicidal activity, Velvetleaf (velvetleaf [4]; 5 g/are): 5 (0); Herbicidal activity, Velvetleaf (velvetleaf [4]; 10 g/are): 5 (0); Phytotoxicity, Soybean (soybean; 2.5 g/are): 0 (100); Phytotoxicity, Soybean (soybean; 10 g/are): 0 (100); Herbicidal activity, Morningglory (morningglory; 2.5 g/are): 4 (1-10); Herbicidal activity, Green foxtail (green foxtail; 2.5 g/are): 4 (1-10)
2 | CCCOc1cc(N2C(=O)C3=C(CCCC3)C2=O)c(F)cc1Cl [compound 3] | 0 (100) | 1 (90-99) | 4 (1-10) | 5 (0) | 4 (1-10) | 5 (0) | 5 (0) | 5 (0) | 5 (0) | 5 (0) | 0 (100) | 1 (90-99) |  |  | 4 (1-10) | 5 (0) | 5 (0) | 4 (1-10) | 5 (0) | 5 (0) | Phytotoxicity, Corn (corn [3]; 5 g/are): 0 (100); Phytotoxicity, Corn (corn [3]; 10 g/are): 0 (100); Herbicidal activity, Tall morningglory (tall morningglory; 5 g/are): 4 (1-10); Herbicidal activity, Tall morningglory (tall morningglory; 10 g/are): 5 (0); Herbicidal activity, Sicklepod (sicklepod; 5 g/are): 4 (1-10); Herbicidal activity, Sicklepod (sicklepod; 10 g/are): 5 (0); Herbicidal activity, Velvetleaf (velvetleaf [4]; 5 g/are): 5 (0); Herbicidal activity, Velvetleaf (velvetleaf [4]; 10 g/are): 5 (0); Herbicidal activity, Morningglory (morningglory; 2.5 g/are): 4 (1-10); Herbicidal activity, Green foxtail (green foxtail; 2.5 g/are): 4 (1-10)
3 | CCOc1cc(N2C(=O)C3=C(CCCC3)C2=O)c(F)cc1Br [compound 13] | 0 (100) | 1 (90-99) | 2 (21-40) | 5 (0) | 2 (21-40) | 5 (0) | 5 (0) | 5 (0) | 5 (0) | 5 (0) | 0 (100) | 0 (100) | 0 (100) | 1 (90-99) | 5 (0) | 4 (1-10) | 5 (0) | 4 (1-10) | 5 (0) | 5 (0) | Phytotoxicity, Soybean (soybean; 2.5 g/are): 0 (100); Phytotoxicity, Soybean (soybean; 10 g/are): 1 (90-99); Herbicidal activity, Green foxtail (green foxtail; 2.5 g/are): 4 (1-10)
4 | CCCOc1cc(N2C(=O)C3=C(CCCC3)C2=O)c(F)cc1Br [compound 14] | 0 (100) | 1 (90-99) | 3 (11-20) | 5 (0) | 3 (11-20) | 5 (0) | 5 (0) | 5 (0) | 5 (0) | 5 (0) | 0 (100) | 0 (100) | 0 (100) | 0 (100) | 4 (1-10) | 4 (1-10) | 5 (0) | 4 (1-10) | 4 (1-10) | 4 (1-10) | Phytotoxicity, Soybean (soybean; 2.5 g/are): 0 (100); Phytotoxicity, Soybean (soybean; 10 g/are): 1 (90-99); Herbicidal activity, Green foxtail (green foxtail; 2.5 g/are): 4 (1-10)
5 | CCC(C)Oc1cc(N2C(=O)C3=C(CCCC3)C2=O)c(F)cc1Br (centres unmarked) [compound 15] | 0 (100) | 1 (90-99) | 2 (21-40) | 5 (0) | 2 (21-40) | 5 (0) | 5 (0) | 5 (0) | 5 (0) | 5 (0) | 0 (100) | 0 (100) | 0 (100) | 1 (90-99) | 5 (0) | 4 (1-10) | 5 (0) | 4 (1-10) | 4 (1-10) | 4 (1-10) | Phytotoxicity, Soybean (soybean; 2.5 g/are): 0 (100); Phytotoxicity, Soybean (soybean; 10 g/are): 1 (90-99)
